The numbers were not newly measured in patent US20070281009A1, “N-Acetylglucosamine Tablet Disintegrating In Oral Cavity And Process For Producing The Same” (Yaizu Suisankagaku Industry Co., Ltd., priority 2004, published 2007), which cites them from elsewhere.

SMILES strings stand for the structures.

The test system of one data set is skin beauty. As to conditions: human, oral, 1,000 mg/day.
A further data set has as its system arthropathy. As to conditions: human, 500 mg/day or 1,000 mg/day dissolved in milk.
Data set [1] relates to synthesis of hyaluronic acid.

For the compound `CC(=O)N[C@H]1C(O)O[C@H](CO)[C@@H](O)[C@@H]1O` (stereo partly drawn) [N-acetylglucosamine], in the data set on skin beauty, the “Effect on enhancing skin beauty” value is “effective”. The “Effect of ameliorating arthropathy” value in the data set with arthropathy is “confirmed to provide an effect of ameliorating arthropathy”.
With `CC1=C(/C=C/C(C)=C/C=C/C(C)=C/C=C/C=C(C)/C=C/C=C(C)/C=C/C2=C(C)CCCC2(C)C)C(C)(C)CCC1` [β-carotene], the “Ability to promote synthesis of hyaluronic acid” value in data set [1] was “known to have an ability to promote synthesis of hyaluronic acid”.
